SMILES strings stand for the structures. pIC50: −log10 of the molar value. Structures can show the parent of a compound that is named as a salt.

The first assay has as its system clot lysis (fibrinolysis) in human citrated plasma, tPA-induced. The assay is described as follows: Plasma-based clot lysis assay (5%). Type of assay: biochemical. Conditions: diluted human citrated plasma (platelet-poor, 5%), fibrinogen 3 μM, CaCl2 10 mM, tPA 0.2 nM, 37° C., OD 405 nm. The method, then: B-2. Plasma-based Clot Lysis Assay (5%)
The clot-lysis test system configures the kinetics of clot formation and degradation in vitro and allows quantifying modulation of the process by selected test compounds.
The test compounds were dissolved in 1% acetic acid and further complemented with an equal volume of DMSO. The resulting stock solutions were serially diluted in 0.5% acetic acid/50% DMSO. 1 μL aliquots of these solutions were placed into 384 well microplates (Greiner, black, transparent bottom), followed by 30 μL of diluted human citrated plasma (platelet-poor, final concentration: 5%; supplemented with fibrinogen, final concentration: 3 μM; dilution buffer: 20 mM HEPES, 150 mM NaCl, 0.01% Brij (pH 7)). The reactions were started by addition of […] of CaCl2 (final concentration: 10 mM), and tPA (tissue plasminogen activator, final concentration: 0.2 nM) in dilution buffer, followed by an additional volume of 20 μL dilution buffer for improved mixing. The reactions were incubated at 37° C. Clot formation and degradation was monitored spectrophotometrically by kinetic optical density measurements at 405 nm. IC50 values were determined by comparing the resulting time courses with the time course of a blank control reaction.
`O=c1cc(C2CCNCC2)n2nc3cccc(-c4ccc(C(F)(F)F)cc4)c3c2[nH]1` [Example 55, 4-(Piperidin-4-yl)-10-[4-(trifluoromethyl)phenyl]pyrimido[1,2-b]indazol-2(1H)-one hydrochloride] showed a pIC50 of 7.85.

In the case of `O=c1cc(C2CCNCC2)n2nc3cnccc3c2[nH]1` [Example 29, 4-(Piperidin-4-yl)pyrido[3′,4′:3,4]pyrazolo[1,5-a]pyrimidin-2(1H)-one hydrochloride], the pIC50 is 7.55.

Take `Cc1ccc2nn3c(C4CCNCC4)cc(=O)[nH]c3c2c1` [Example 15, 9-Methyl-4-(piperidin-4-yl)pyrimido[1,2-b]indazol-2(1H)-one hydrochloride]: the negative-log IC50 (pIC50) is 7.32.

Turning to `CCOc1ccccc1-c1cccc2nn3c(C4CCNCC4)cc(=O)[nH]c3c12` [Example 93, 10-(2-Ethoxyphenyl)-4-(piperidin-4-yl)pyrimido[1,2-b]indazol-2(1H)-one hydrochloride], the pIC50 was 7.55.

In turn, `C[C@H]1C[C@H](c2cc(=O)[nH]c3c4c(-c5ccccc5)ccnc4nn23)CCN1` [Example 51, (−)-trans-4-(2-Methylpiperidin-4-yl)-10-phenylpyrido[2′,3′:3,4]pyrazolo[1,5-a]pyrimidin-2(1H)-one hydrochloride] had a pIC50 of 7.82.

Regarding `O=c1cc(C2CCNCC2)n2nc3cccc(-n4cncn4)c3c2[nH]1` [Example 91, 4-(Piperidin-4-yl)-10-(1H-1,2,4-triazol-1-yl)pyrimido[1,2-b]indazol-2(1H)-one hydrochloride], the pIC50 was 7.57.

For the molecule `O=c1cc(C2CCNCC2)n2nc3c(F)ccc(Br)c3c2[nH]1` [Example 71, 10-Bromo-7-fluoro-4-(piperidin-4-yl)pyrimido[1,2-b]indazol-2(1H)-one hydrochloride], the pIC50 was 7.82.

On to `Nc1ccc2c(c1)nn1c(C3CCNCC3)cc(=O)[nH]c21` [Example 16, 8-Amino-4-(piperidin-4-yl)pyrimido[1,2-b]indazol-2(1H)-one hydrochloride], for which the pIC50 is 7.47. This pIC50 is 0.35 log units lower than that of the molecule before.

`O=c1cc(C2CCNCC2)n2nc3cccc(F)c3c2[nH]1` [Example 4, 10-Fluoro-4-(piperidin-4-yl)pyrimido[1,2-b]indazol-2(1H)-one hydrochloride] showed a pIC50 of 7.55.

`Cc1ccc(Cl)c2c1nn1c(C3CCNCC3)cc(=O)[nH]c21` [Example 100, 10-Chloro-7-methyl-4-(piperidin-4-yl)pyrimido[1,2-b]indazol-2(1H)-one hydrochloride] showed a pIC50 of 7.52.

For the molecule `O=c1cc(C2CCNCC2)n2nc3cccc(O)c3c2[nH]1` [Example 105, 10-hydroxy-4-(piperidin-4-yl)pyrimido[1,2-b]indazol-2(1H)-one hydrobromide], the pIC50 is 7.13.

With `O=c1cc(C2CCNCC2)n2nc3cncc(Br)c3c2[nH]1` [Example 43, 10-Bromo-4-(piperidin-4-yl)pyrido[3′,4′:3,4]pyrazolo[1,5-a]pyrimidin-2(1H)-one hydrochloride], the pIC50 was 7.00. The pIC50 values of the last two molecules are within 0.2 log units of each other.

On to `O=c1cc(C2CCNCC2)n2nc3cccc(-c4ccccc4F)c3c2[nH]1` [Example 95, 10-(2-Fluorophenyl)-4-(piperidin-4-yl)pyrimido[1,2-b]indazol-2(1H)-one], for which the pIC50 was 7.74.

`Cc1cc(C)c2c(n1)nn1c(C3CCNCC3)cc(=O)[nH]c21` [Example 32, 8,10-Dimethyl-4-(piperidin-4-yl)pyrido[2′,3′:3,4]pyrazolo[1,5-a]pyrimidin-2(1H)-one hydrochloride] had a pIC50 of 6.68.

Take `O=c1cc(C2CCNCC2)n2nc3cccc(Cl)c3c2[nH]1` [Example 66, 10-Chloro-4-(piperidin-4-yl)pyrimido[1,2-b]indazol-2(1H)-one]: the pIC50 is 7.82. Against the preceding molecule, the pIC50 is 1.14 log units higher.

`CC(C)Oc1ccccc1-c1cccc2nn3c(C4CCNCC4)cc(=O)[nH]c3c12` [Example 94, 10-(2-Isopropoxyphenyl)-4-(piperidin-4-yl)pyrimido[1,2-b]indazol-2(1H)-one hydrochloride] showed a pIC50 of 7.46.

On to `O=c1cc(C2CCNCC2)n2nc3ccc(Cl)cc3c2[nH]1` [Example 5, 9-Chloro-4-(piperidin-4-yl)pyrimido[1,2-b]indazol-2(1H)-one hydrochloride], for which the pIC50 is 7.43. This pIC50 and that of the molecule before are within 0.2 log units of each other.

In the case of `O=c1cc(C2CCNCC2)n2nc3cccc(-c4ccccc4)c3c2[nH]1` [Example 56, 10-Phenyl-4-(piperidin-4-yl)pyrimido[1,2-b]indazol-2(1H)-one hydrochloride], the pIC50 was 7.85. This pIC50 is 0.42 log units higher than that of the molecule before.

With `O=c1cc(C2CCNCC2)n2nc3cccc(-c4ccccc4OC(F)(F)F)c3c2[nH]1` [Example 80, 4-(Piperidin-4-yl)-10-[2-(trifluoromethoxy)phenyl]pyrimido[1,2-b]indazol-2(1H)-on hydrochloride], the pIC50 was 7.74.

Turning to `O=c1cc(C2CCNCC2)n2nc3cccc(-c4cnc[nH]4)c3c2[nH]1` [Example 103, 10-(1H-imidazol-5-yl)-4-(piperidin-4-yl)pyrimido[1,2-b]indazol-2(1H)-one hydrochloride], the pIC50 is 6.96.

`O=c1cc(C2CCNCC2)n2nc3ccncc3c2[nH]1` [Example 49, 4-(Piperidin-4-yl)pyrido[4′,3′:3,4]pyrazolo[1,5-a]pyrimidin-2(1H)-one] had a pIC50 of 7.44.

`O=c1cc(C2CCNCC2)n2nc3cccc(C4CCCC4)c3c2[nH]1` [Example 63, 10-Cyclopentyl-4-(piperidin-4-yl)pyrimido[1,2-b]indazol-2(1H)-one hydrochloride] showed a pIC50 of 7.89. This pIC50 is 0.45 log units higher than that of the molecule before.

`O=c1cc(C2CCNCC2)n2nc3cccc(-c4ccccc4Cl)c3c2[nH]1` [Example 64, 10-(2-Chlorophenyl)-4-(piperidin-4-yl)pyrimido[1,2-b]indazol-2(1H)-one hydrochloride]: the pIC50 was 7.72.

With `O=c1cc(C2CCNCC2)n2nc3c(C(F)(F)F)cccc3c2[nH]1` [Example 30, 4-(Piperidin-4-yl)-7-(trifluoromethyl)pyrimido[1,2-b]indazol-2(1H)-one hydrochloride], the pIC50 is 7.34. This pIC50 is 0.38 log units lower than that of the molecule before.

Take `O=c1cc(C2CCNCC2)n2nc3ccc(F)c(Cl)c3c2[nH]1` [Example 90, 10-Chloro-9-fluoro-4-(piperidin-4-yl)pyrimido[1,2-b]indazol-2(1H)-one hydrochloride]: the pIC50 is 7.62.

In turn, `O=c1cc(C2CCNCC2)n2nc3cc(C(F)(F)F)cc(Cl)c3c2[nH]1` [Example 41, 10-Chloro-4-(piperidin-4-yl)-8-(trifluoromethyl)pyrimido[1,2-b]indazol-2(1H)-one hydrochloride] showed a pIC50 of 7.64.

For the molecule `Cc1cc(Br)c2c(c1)nn1c(C3CCNCC3)cc(=O)[nH]c21` [Example 89, 10-Bromo-8-methyl-4-(piperidin-4-yl)pyrimido[1,2-b]indazol-2(1H)-one hydrochloride], the pIC50 is 7.44. This pIC50 is 0.20 log units lower than that of the molecule before.

Regarding `O=c1cc(C2CCNCC2)n2nc3cccc(-c4ccsc4)c3c2[nH]1` [Example 84, 4-(Piperidin-4-yl)-10-(3-thienyl)pyrimido[1,2-b]indazol-2(1H)-one hydrochloride], the pIC50 was 7.64.

`O=c1cc(C2CCNCC2)n2nc3cccc(OC(F)(F)F)c3c2[nH]1` [Example 37, 4-(Piperidin-4-yl)-10-(trifluoromethoxy)pyrimido[1,2-b]indazol-2(1H)-one hydrochloride] had a pIC50 of 7.36. This pIC50 is 0.28 log units lower than that of the molecule before.

In turn, `CN(C)c1ccnc2nn3c(C4CCNCC4)cc(=O)[nH]c3c12` [Example 40, 10-(Dimethylamino)-4-(piperidin-4-yl)pyrido[2′,3′:3,4]pyrazolo[1,5-a]pyrimidin-2(1H)-one hydrochloride] gave a pIC50 of 7.42.

Molecule `O=c1cc(C2CCNCC2)n2nc3cccc(-c4cccs4)c3c2[nH]1` [Example 88, 4-(Piperidin-4-yl)-10-(2-thienyl)pyrimido[1,2-b]indazol-2(1H)-one hydrochloride] showed a pIC50 of 7.59.

`O=c1cc(C2CCNCC2)n2nc3ccc(F)c(-c4ccccc4F)c3c2[nH]1` [Example 92, 9-Fluoro-10-(2-fluorophenyl)-4-(piperidin-4-yl)pyrimido[1,2-b]indazol-2(1H)-one hydrochloride] gave a pIC50 of 7.57.

For `Cc1ccnc2nn3c(C4CCNCC4)cc(=O)[nH]c3c12` [Example 47, 10-methyl-4-(piperidin-4-yl)pyrido[2′,3′:3,4]pyrazolo[1,5-a]pyrimidin-2(1H)-one hydrochloride], the pIC50 is 7.62.

With `COc1cccc2nn3c(C4CCNCC4)cc(=O)[nH]c3c12` [Example 8, 10-Methoxy-4-(piperidin-4-yl)pyrimido[1,2-b]indazol-2(1H)-one hydrochloride], the pIC50 is 7.34.

Staying with this assay, now noted: diluted human citrated plasma (platelet-poor, 5%), fibrinogen 3 μM, CaCl2 10 mM, tPA 0.2 nM, 37° C., OD 405 nm; hydrochloride.
For `O=c1cc(C2CCNCC2)n2nc3cccc(Br)c3c2[nH]1` [Example 10, 10-Bromo-4-(piperidin-4-yl)pyrimido[1,2-b]indazol-2(1H)-one hydrochloride], the pIC50 was 7.47.

The same assay, now with this note: diluted human citrated plasma (platelet-poor, 5%), fibrinogen 3 μM, CaCl2 10 mM, tPA 0.2 nM, 37° C., OD 405 nm; trifluoroacetate.
`N#Cc1cccc2nn3c(C4CCNCC4)cc(=O)[nH]c3c12` [Example 33, 2-Oxo-4-(piperidin-4-yl)-1,2-dihydropyrimido[1,2-b]indazole-10-carbonitrile trifluoroacetate] showed a pIC50 of 7.68.

One may read the pIC50 as the IC50 on a negative log10 scale, so that one unit is a factor of ten. Low values mean a large IC50, high ones a small IC50.

(Values after patent US10098883B2, “(Aza)pyridopyrazolopyrimidinones and indazolopyrimidinones and their use” (BAYER PHARMA AKTIENGESELLSCHAFT, priority 2013, dated 2018).)
